Experimental data reported in patent US7629310B2, “RhoB as a suppressor of cancer cell growth, cell transformation, and metastasis” (University of South Florida, priority 2000, dated 2009).

Legend:
H-Ras/NIH3T3 cells = experiment: 5-FU-induced apoptosis (Annexin V, flow cytometry) in H-Ras-transformed NIH3T3 cells; assay type: cell-based
Description: Apoptosis Assay. Cells were collected by trypsinization, washed in wash buffer and stained with Annexin V and 7-AAD according to manufacturer's recommendation (PharMingen, San Diego, Calif.). Data acquisition and analysis was performed by the Flow Cytometry Core Facility at the H. Lee Moffitt Cancer Center (Tampa, Fla.). All the samples were performed in duplicate and a representative of 3 independent experiments were reported here.

NIH3T3 cells [1] = experiment: Focus formation assay in oncogene-transfected NIH3T3 cells; assay type: cell-based; set-up: inhibition of focus formation: concentration or dose not given beside the values; details: for # of foci formed: 4 weeks
Description: Focus Formation Assay. NIH3T3 cells were seeded into 60-mm plates (1×10^6 cell/per plate) one day prior to gene transfection. […] Two days after transfection, the cells were seeded into 60-mm plates at a density of 2.5×10^3/per plate, and maintained in DMEM medium containing 1.5% CBS. The medium was changed every 3 days. 3-4 weeks later the cells were washed once with PBS and once with PBS/methanol (1:1), then washed with fresh anhydrous methanol and covered with crystal violet stain for 1 min at room temperature. Finally, the stain was displaced with water. The focus formation assay for A-549 cells was similarly performed as above except that following the transfection the cells were cultured in DMEM complete medium containing 400 μg/ml of geneticin (G418, […], Inc.). 3 weeks later, the cells were fixed with anhydrous methanol and stained with crystal violet; the plates were photographed. All the samples were performed in triplicate and a representative of 3 independent experiments was reported in the figure(s) and averages±standard deviation reported in the table.

NIH3T3 cells [2] = experiment: Cell proliferation, parental NIH3T3; assay type: cell-based; details: non-transformed NIH3T3, 0-96 hours
Description: (§1) Cell Proliferation. Cells were collected and examined for cell number by trypan blue exclusion and hemocytometer counting under microscope at 0 h, 24 h, 48 h, 72 h and 96 h. All the samples were performed in triplicate and the averages of 3 independent experiments were reported.

A-549 cells [3] = experiment: Cell proliferation, A-549; assay type: cell-based, human; details: A-549, 0-96 hours
Description: as §1

A-549 cells [4] = experiment: Anoikis assay in A-549 cells; assay type: cell-based, human; details: A-549, poly-HEMA plates, 24 hr; control 40%
Description: Anoikis Assay. Cells were collected by trypsinization, washed twice with PBS, and re-suspended in serum-free medium containing 0.5% BSA; 5.0×10^5 cells were then seeded in triplicates into 60-mm plates pre-coated with poly(2-hydroxyethylmethacrylate) (poly-HEMA, SIGMA) according to the data sheet of the agents. 24 hrs later the cellular viability was determined by trypan blue exclusion.

NIH3T3 cells [5] = experiment: Anoikis assay in transfected NIH3T3 cells; assay type: cell-based; details: transfected NIH3T3, poly-HEMA plates, 12 or 24 hours, vs pcDNA3 (FIG. 10B)
Description: (§2) Parental NIH3T3 cells (FIG. 10A) were transiently transfected with pcDNA3 vector, HRas61L, or Akt in the presence or absence of RhoA, RhoB, or pcDNA3 for 36 hours. The cells were then split and cultured in DMEM medium containing 2 μM 5-FU for another 48 hours. The cells were then examined for their susceptibility to 5-FU-induced apoptosis by Annexin V labeling and flow cytometry apoptosis assays as described in the Materials and Methods section. 36 hours after the transfection, a fraction of the cells from FIG. 10A were washed and re-suspended in serum-free medium and seeded into the pre-coated plates and examined for viability at different time points by Annex V and 7-AAD labeling, as shown in FIG. 10B. In FIG. 10B, the bars at each time point (0, 12, 24 hrs), left-to-right, correspond to PCD, H-Ras, AKT, RhoA, RhoB, Akt+RhoA, and Akt+RhoB, respectively. B16-F10 melanoma cells were transiently transfected with pcDNA3 vector, pcDNA-RhoA or pcDNA-RhoB; 20 hours later, the cells were examined for gene delivery by Western Blotting with anti-HA, as shown in FIG. 10C. 5×10^5 of the cells from FIG. 10A were injected into the tail veins of C57/B16 mice. The numbers of metastatic nodules per mouse lung represent an average±standard error from 5 mice per group. […]
Anoikis Assay. […] 24 hrs later the cellular viability was determined by trypan blue exclusion.

B16-F10 melanoma cells = experiment: Melanoma metastasis assay (B16-F10 cells injected into tail vein); assay type: in vivo, mouse; details: transfected B16-F10 cells, C57 black mice, after 3 weeks, pcDNA3 control 14.8±1.9
Description: as §2, with “respectively.” for “respectively. B16-F10 melanoma cells were transiently transfected with pcDNA3 vector, pcDNA-RhoA or pcDNA-RhoB; 20 hours later, the cells were examined for gene delivery by Western Blotting with anti-HA, as shown in FIG. 10C. 5×10^5 of the cells from FIG. 10A were injected into the tail veins of C57/B16 mice. The numbers of metastatic nodules per mouse lung represent an average±standard error from 5 mice per group.”
Melanoma Metastasis Assay. pcDNA3, pcDNA-RhoB and pcDNA-RhoA were transfected into B16-F10 cells similarly as described above. The cells were harvested 20 hours post-transfection; 5×10^5 cells from each group were analyzed for transfection efficiency by Western Blotting; another 5×10^5 cells were injected into the tail veins of C57/B16 mice (6 wk, F). The mice were sacrificed at the indicated intervals and the nodules growing in the lungs were counted.

O=c1[nH]cc(F)c(=O)[nH]1 [5-FU, 5-fluorouracil]
apoptosis (H-Ras/NIH3T3 cells; H-Ras-transformed NIH3T3, 5-FU 2.0 μM 48 hrs (FIG. 4B)): 16-18%

RhoA: closely related family member sharing 86% sequence identity with RhoB; wild-type, in HA-tagged pcDNA3, transfected as control
# of foci formed (NIH3T3 cells [1]; oncogene transfected: EGFR): 47 ± 7
# of foci formed (NIH3T3 cells [1]; oncogene transfected: ErbB2): 61 ± 11
# of foci formed (NIH3T3 cells [1]; oncogene transfected: H-Ras): 63 ± 11
# of foci formed (NIH3T3 cells [1]; oncogene transfected: K-Ras): 71 ± 13
# of foci formed (NIH3T3 cells [1]; oncogene transfected: N-Ras): 46 ± 8
# of foci formed (NIH3T3 cells [1]; oncogene transfected: v-Src): 35 ± 7
growth rate (NIH3T3 cells [2]): enhanced the rate of growth
growth rate (A-549 cells [3]): enhanced the rate of growth
cell death on deprivation of substratum attachment (anoikis) (A-549 cells [4]): protected these cells from anoikis
cell death induced by lack of attachment (anoikis) (NIH3T3 cells [5]): much lower rate of anoikis
metastatic colonies per lung (B16-F10 melanoma cells): 13±4.5

RhoB: low molecular weight GTPase; wild-type RhoB subcloned into HA-tagged pcDNA3 and ectopically expressed by transfection
colony (focus) formation (NIH3T3 cells [1]; co-transfection with H-Ras61L, CA-PI3K or CA-Akt, 4 weeks (FIG. 8A)): significant inhibition of colony formation
inhibition of focus formation (NIH3T3 cells [1]; focus formation by EGFR): 56%
inhibition of focus formation (NIH3T3 cells [1]; focus formation by ErbB2): 59%
inhibition of focus formation (NIH3T3 cells [1]; focus formation by H-Ras): 62%
inhibition of focus formation (NIH3T3 cells [1]; focus formation by K-Ras): 61%
inhibition of focus formation (NIH3T3 cells [1]; focus formation by N-Ras): 39%
# of foci formed (NIH3T3 cells [1]; oncogene transfected: EGFR): 17 ± 3
# of foci formed (NIH3T3 cells [1]; oncogene transfected: ErbB2): 19 ± 4
# of foci formed (NIH3T3 cells [1]; oncogene transfected: H-Ras): 18 ± 3
# of foci formed (NIH3T3 cells [1]; oncogene transfected: K-Ras): 16 ± 4
# of foci formed (NIH3T3 cells [1]; oncogene transfected: N-Ras): 22 ± 3
# of foci formed (NIH3T3 cells [1]; oncogene transfected: v-Src): 26 ± 6
inhibition of focus formation (NIH3T3 cells [1]; v-Src transformation): 15%
growth rate (NIH3T3 cells [2]): not affected
growth rate (A-549 cells [3]): inhibited the growth rate
percent of apoptosis induced by 5-FU after transfection (H-Ras/NIH3T3 cells; H-Ras-transformed NIH3T3, transfected 24 hrs then 5-FU 48 hrs, control 16%): 37%
cell death on deprivation of substratum attachment (anoikis) (A-549 cells [4]): 78%
cell death induced by lack of attachment (anoikis) (NIH3T3 cells [5]): significantly higher cell death
metastatic colonies per lung (B16-F10 melanoma cells): 2±0.7
